The data set relates to HES2 or HES3 cells. The data set can be described thus: 3i-induction of hepatocyte-like cells from human ES cells; dosages of medium components examined. The class given is cell-based. How it is done:
HES2 or 3 cells were cultured for 5 days on MEF-feeders with 20% FCS hES medium in organ culture dishes. […] Cells were detached as clumps by collagenase and feeder cells were removed by sedimentation in DMEM/F-12 medium.
They were subsequently propagated using 3i or Kubota's medium following enzymatic dissection.
HES2 or 3 cells were cultured 5 days on MEF-feeders with 20% FCS hES medium in organ culture dishes.
Cells were detached as clumps by collagenase and feeder cells were removed by sedimentation in DMEM/F-12 medium.

For the molecule `c1cc(-c2cnn3cc(-c4ccc(OCCN5CCCCC5)cc4)cnc23)ccn1` [Dorsomorphin], where the note is “Dorsomorphin 5 μM, in combination of PD0325901, CHIR99021 and Dorsomorphin”, the “toxicity to the culture” value is “toxic”.
Consider `O=C(NOCC1CC1)c1ccc(F)c(F)c1Nc1ccc(I)cc1Cl` [PD184352], for which the “effect on hepatic differentiation” value runs as follows: (PD184352 0.4 μM, in combination of SU5402, PD184352 and CHIR99021) “decreased hepatic differentiation and increased trophectodermal cells”; (PD184352 0.8 μM, in combination of SU5402, PD184352 and CHIR99021) “most efficient”; (PD184352 1.6 μM, in combination of SU5402, PD184352 and CHIR99021) “no difference from 0.8 μM”.
For the molecule `O=C(NOC[C@H](O)CO)c1ccc(F)c(F)c1Nc1ccc(I)cc1F` [PD0325901], the “efficiency of hepatic differentiation compared with 3i” value was “no difference from 3i” (PD0325901 0.4 μM, in combination of PD0325901 and CHIR99021); “more efficient than 3i” (PD0325901 0.8 μM, in combination of PD0325901 and CHIR99021). Moreover, where the note is “PD0325901 1.6 μM, in combination of PD0325901 and CHIR99021”, the “efficiency of hepatic differentiation” value is recorded as “no difference from 0.8 μM”.
In the case of `Cc1c[nH]c(/C=C2\C(=O)Nc3ccccc32)c1CCC(=O)O` [SU5402, 3-[3-(2-Carboxyethyl)-4-methylpyrrol-2-methylidenyl]-2-indolinone], the “effect on hepatic differentiation” value runs as follows: (SU5402 1 μM, in combination of SU5402, PD184352 and CHIR99021) “decreased hepatic differentiation and increased trophectodermal/neural cells”; (SU5402 2 μM, in combination of SU5402, PD184352 and CHIR99021) “most efficient”. Besides, for the setting “SU5402 4 μM, in combination of SU5402, PD184352 and CHIR99021”, the “toxicity to the culture” value is “toxic”.

Source of the values: patent publication US8278105B2, “Induction, propagation and isolation of liver progenitor cells” (University of Southern California, priority 2008, dated 2012).
